How the values were obtained:
[1] = test system: Nucleic Acid; details: at 10 µM
Description: Inhibition of N-acetylphenylalanine-tRNA peptide bond formation by puromycin reaction at 10E-5 M

[2] = test system: Nucleic Acid; details: at 10 µM; remark: listed apart in the source
Description: Inhibition of N-acetylphenylalanine-tRNA peptide bond formation by fragment reaction at 10e-5 M

[3] = test system: Nucleic Acid; details: at 1 µM
Description: Inhibition of N-acetylphenylalanine-tRNA peptide bond formation by puromycin reaction at 10E-6 M

`CC[C@H]1OC(=O)[C@H](C)[C@@H](O[C@H]2C[C@@](C)(OC)[C@@H](O)[C@H](C)O2)[C@H](C)[C@@H](O[C@@H]2O[C@H](C)C[C@H](N(C)C)[C@H]2O)[C@@](C)(O)C[C@@H](C)[C@H](NC(=O)CCCOc2ccc([N+](=O)[O-])cc2OC)[C@H](C)[C@@H](O)[C@]1(C)O` gave an inhibition [1] of 25%, an inhibition [2] of 11% and an inhibition [3] of 13%.
With `CC[C@H]1OC(=O)[C@H](C)[C@@H](O[C@H]2C[C@@](C)(OC)[C@@H](O)[C@H](C)O2)[C@H](C)[C@@H](O[C@@H]2O[C@H](C)C[C@H](N(C)C)[C@H]2O)[C@@](C)(O)C[C@@H](C)[C@H](NC(=O)CNC(=O)CCCOc2ccc([N+](=O)[O-])cc2OC)[C@H](C)[C@@H](O)[C@]1(C)O` the inhibition [1] was 30%, the inhibition [2] was 24% and the inhibition [3] was 18%.
With SPIRAMYCIN the inhibition [1] was 85%, the inhibition [2] was 48% and the inhibition [3] was 53%.
`CC[C@H]1OC(=O)[C@H](C)[C@@H](O[C@H]2C[C@@](C)(OC)[C@@H](O)[C@H](C)O2)[C@H](C)[C@@H](O[C@@H]2O[C@H](C)C[C@H](N(C)C)[C@H]2O)[C@@](C)(O)C[C@@H](C)[C@H](NC(=O)COc2cc(N=[N+]=[N-])ccc2CO)[C@H](C)[C@@H](O)[C@]1(C)O` showed an inhibition [1] of 23%, an inhibition [2] of 0% and an inhibition [3] of 15%.

Reference: ChEMBL document CHEMBL1124648, “Synthesis and biological activity of photoactive derivatives of erythromycin” (J Med Chem, 1989)
